Laboratory results from ChEMBL document CHEMBL3580593, “Parthenolide prodrug LC-1 slows growth of intracranial glioma” (Bioorg Med Chem Lett, 2015).
Activity calls are given as the source filed them. No cut-off for these calls is given here.

Tests used:
Mus musculus [1] = test: Toxicity in C57BL/6 mouse assessed as WBC count at 100 mg/kg, po formulated in HP-beta CD; type: organism-based; settings: in vivo
[2] = Drug uptake in CD1 mouse perfused brain at 100 mg/kg, po after 1 hr by LC-MS/MS analysis; type: ADME, organism-based; settings: read-out: Drug uptake
Mus musculus [3] = test: Toxicity in C57BL/6 mouse assessed as RBC count at 100 mg/kg, po formulated in HP-beta CD; type: organism-based; settings: in vivo
[4] = Half life in mouse serum; type: ADME, cell-free
[5] = Ratio of drug level in brain to plasma in CD1 mouse at 100 mg/kg, po after 1 hr by LC-MS/MS analysis; type: ADME, organism-based; settings: read-out: BPR
Brain [6] = test: Drug uptake in CD1 mouse perfused brain assessed as elimination product parthenolide at 100 mg/kg, po after 4 hrs by LC-MS/MS analysis; type: ADME, organism-based; settings: in vivo
U-87 MG = test: Cytotoxicity against human U87MG cells assessed as cell viability after 48 hrs by Alamar Blue assay; type: functional, cell-based, U-87MG ATCC
[7] = Drug uptake in CD1 mouse plasma at 100 mg/kg, po after 1 hr by LC-MS/MS analysis; type: ADME, organism-based
[8] = Cytotoxicity against […] GL261-GFP-Luc cells assessed as cell viability after 48 hrs by Alamar Blue assay; type: functional, cell-based; settings: Mus musculus, GL261, 48 h
Plasma [9] = test: Drug uptake in CD1 mouse plasma assessed as elimination product parthenolide at 100 mg/kg, po after 4 hrs by LC-MS/MS analysis; type: ADME, organism-based; settings: in vivo
Brain [10] = test: Drug uptake in CD1 mouse perfused brain assessed as elimination product parthenolide at 100 mg/kg, po after 1 hr by LC-MS/MS analysis; type: ADME, organism-based; settings: in vivo
Nucleic Acid = test: Ratio of drug level in brain to plasma in CD1 mouse assessed as elimination product parthenolide at 100 mg/kg, po after 4 hrs by LC-MS/MS analysis; type: ADME, organism-based
[11] = Ratio of drug level in brain to plasma in Wistar rat at 100 mg/kg, po after 3 hrs by UPLC-MS/MS analysis; type: ADME, organism-based; settings: read-out: BPR
Mus musculus [12] = test: Toxicity in C57BL/6 mouse assessed as platelet count at 100 mg/kg, po formulated in HP-beta CD; type: organism-based; settings: in vivo
[13] = Ratio of drug level in brain to plasma in Wistar rat at 100 mg/kg, po after 30 mins by UPLC-MS/MS analysis; type: ADME, organism-based; settings: read-out: BPR
Plasma [14] = test: Drug uptake in CD1 mouse plasma assessed as elimination product parthenolide at 100 mg/kg, po after 1 hr by LC-MS/MS analysis; type: ADME, organism-based; settings: in vivo
GL261 [15] = test: Antitumor activity in mouse GL261-GFP-Luc cells allografted in C57BL/6J mouse assessed as increase in mouse survival time at 100 mg/kg, po relative to control; type: functional, organism-based
[16] = Drug uptake in CD1 mouse perfused brain at 100 mg/kg, po after 4 hrs by LC-MS/MS analysis; type: ADME, organism-based; settings: read-out: Drug uptake
[17] = Ratio of drug level in brain to plasma in CD1 mouse at 100 mg/kg, po after 4 hrs by LC-MS/MS analysis; type: ADME, organism-based; settings: read-out: BPR
GL261 [18] = test: Antitumor activity in mouse GL261-GFP-Luc cells allografted in C57BL/6J mouse assessed as delay in tumor growth at 100 mg/kg, po relative to control; type: functional, organism-based
[19] = Drug uptake in CD1 mouse plasma at 100 mg/kg, po after 4 hrs by LC-MS/MS analysis; type: ADME, organism-based
Mus musculus [20] = test: Toxicity in C57BL/6 mouse assessed as hemoglobin level at 100 mg/kg, po formulated in HP-beta CD; type: organism-based; settings: in vivo
[21] = Cytotoxicity against human GBM6 cells assessed as cell viability after 48 hrs by Alamar Blue assay; type: functional, cell-based; settings: GBM6, 48 h

C/C1=C\CC[C@@]2(C)O[C@H]2[C@H]2OC(=O)[C@@H](CN(C)C)[C@@H]2CC1
Activity (Mus musculus [1]): Non-toxic | concentration at 1 h [2]: 6250 ng/g | Activity (Mus musculus [3]): Non-toxic | half-life [4]: 37.8 min | Kp at 1 h [5]: 2.1 | Drug uptake (Brain [6]): 113 ng/g | IC50 (U-87 MG): 8.8 µM | concentration at 1 h [7]: 2960 ng/mL | IC50 [8]: 6.9 µM | Cp (Plasma [9]): 211 ng/mL | Drug uptake (Brain [10]): 2402 ng/g | BPR (Nucleic Acid): 0.5 | Kp at 3 h [11]: 1.91 | Activity (Mus musculus [12]): Non-toxic | Kp at 0.5 h [13]: 1.84 | Cp (Plasma [14]): 2142 ng/mL | Activity (GL261 [15]): Active | concentration at 4 h [16]: 342 ng/g | Kp at 4 h [17]: 3 | Activity (GL261 [18]): Active | concentration at 4 h [19]: 115 ng/mL | Activity (Mus musculus [20]): Non-toxic | IC50 [21]: 3.5 µM

C=C1C(=O)O[C@@H]2C3O[C@]3(C)CC/C=C(\C)CC[C@@H]12 (stereo partly specified)
IC50 (U-87 MG): 8.8 µM | IC50 [8]: 7.6 µM | IC50 [21]: 3.4 µM
